Results on nine compounds are retold here after patent publication US12553903B2, “Ivaltinostat combination therapy for treating pancreatic cancer” (CG Pharmaceuticals, Inc, priority 2023, dated 2026).

Data set [1] relates to patients with advanced PDAC. Briefly: Phase II safety and adverse events (NCI-CTCAE v4.0). Format: in vivo. The note with it: for patients with dose reduced due to occurrence of AEs: three of 24 patients. The procedure:
(§1) Tumor evaluation was performed at baseline, at the end of every two cycles, and/or at the end of the trial. For patients with measurable/non-measurable lesions, the Response Evaluation Criteria in Solid Tumors version 1.1 was used to evaluate target/non-target lesions. Serial measurements of carbohydrate antigen 19-9 (CA19-9) levels were performed at baseline and at the beginning of each treatment cycle. Patients were followed up for survival until death or study closure. Safety evaluation included vital signs, adverse events (AEs), adverse drug reactions, serious AEs, ECG, and clinic al laboratory tests, which were performed on days 1, 8 and 15 each cycle. AEs were graded according to the Common Terminology Criteria for Adverse Events, version 4.0, by the National Cancer Institute.
Full analysis set (FAS), per protocol (PP), and safety set analysis were defined according to the study protocol. FAS was defined as patients who had been evaluated for tumor response at least once after baseline. The PP analysis set included patients who received at least 70% and more of the intended study drug throughout the treatment period and without any significant violation of the protocol.

Data set [2] deals with patients with unresectable pancreatic ductal adenocarcinoma (PDAC). Format: in vivo. The text has this: The present disclosure discloses a phase I/II study that evaluated the safety and efficacy of the histone deacetylase (HDAC) inhibitor, ivaltinostat, in combination with gemcitabine and erlotinib for advanced pancreatic ductal adenocarcinoma (PDAC). Patients diagnosed with unresectable, histologically confirmed PDAC who had not undergone previous therapy were eligible. […] In phase II, patients received a six-cycle treatment with the MTD of ivaltinostat determined in phase I. The primary endpoint was the objective response rate (ORR). Secondary endpoints included overall survival (OS), disease control rate (DCR), and progression-free survival (PFS). The MTD of ivaltinostat for the phase II trial was determined to be 250 mg/m^2. In phase II, 24 patients were enrolled. The median OS and PFS were 8.6 (95% confidence interval [CI]: 5.3-11.2) and 5.3 months (95% CI: 3.7-5.8). Of the 16 patients evaluated for response, ORR and DCR were 25.0% and 93.8% with a median OS/PFS of 10.8 (95% CI: 8.3-16.7)/5.8 (95% CI: 4.6-6.7) months.
One study disclosed herein was a single-arm phase I/II clinical study. The study evaluated the efficacy and safety of ivaltinostat in combination with gemcitabine and erlotinib for advanced pancreatic cancer. […] The DLT was assessed according to the National Cancer Institute Common Toxicity Criteria version 4.0. […]

Data set [3] in a line: clinical. The conditions noted are these: human, in vivo, iv.
Experimental: The MTD was defined as the dose at which one or zero patients developed a DLT among six-patient cohort. Based on the 3+3 dose escalation design, each cohort consists of three or six subjects. If one in three subjects had experienced DLT in a specific dose, the dose was administered to an additional three subjects and a total of six patients were checked for the occurrence of DLT. If two or more subjects in any cohort had experienced a DLT, the previous dose was considered MTD, and the dose escalation ended. […] Gemcitabine and erlotinib were administered as fixed doses; gemcitabine (1000 mg/m^2 intravenously), and erlotinib (100 mg/day orally), whereas ivaltinostat was administered according to the dose level for each cohort. Each cycle consisted of 28 days. Both ivaltinostat and gemcitabine were administered on days 1, 8, and 15 and erlotinib was administrate d daily for each 28-day cycle.
Data set [4] relates to advanced pancreatic ductal adenocarcinoma (PDAC). Briefly: Phase II efficacy (ORR, DCR, OS, PFS). In kind it is in vivo, human. The procedure: Both ivaltinostat and gemcitabine were administered via the same protocol as that in the phase I study, until development of unacceptable toxicity or disease progression. The entire treatment period was six cycles and could be extended to 12 cycles if the patients wanted to continue the regimen and the principal investigator agreed. Tumor assessment was evaluated at the end of every two cycles. Dose reduction or delay could be applied for intolerant patients according to the study protocol.
The primary endpoint was the ORR, which was defined as the rate (%) of patients who had best tumor assessment with complete response (CR) or partial response (PR) during the treatment period. Secondary endpoints included disease control rate (DCR), OS, and progression-free survival (PFS). DCR was defined as the rate (%) of patients who had best tumor assessment with CR, PR, or stable disease (SD) during the treatment period. OS was defined as the time from the date of the first enrollment to the date of death from any cause. Patients who were still alive or withdrew at the date of cut off were censored. PFS was defined as the time from the date of the first enrollment to the date of tumor progression or to the date of death from any cause. Patients were followed up for survival until death, withdrawal, or study closure.
as §1
Full analysis set (FAS), per protocol (PP), and safety set analysis were defined according to the study protocol. FAS was defined as patients who had been evaluated for tumor response at least once after baseline. The PP analysis set included patients who received at least 70% and more of the intended study drug throughout the treatment period and without any significant violation of the protocol. The safety cohort included all patients who had received the study drug at least once.
Statistical Analysis: To identify MTD and DLT, the 3+3 dose escalation design was utilized and based on the method of determining MTD described above. In total, 10 patients were enrolled in the phase I study. The estimated sample size for the phase II study after the determination of MTD was calculated based on Simon's 2 stage design25 with a reference of published data of 8.6% ORR from a phase III randomized controlled trial of gemcitabine and erlotinib combination therapy. Assuming a difference in response probability of study drug=20%, α=0.05, and statistical power=90%, the estimated minimally required sample size for phase II study based on binomial distribution probability may be 9 for initial stage and increase to a total of 24 patients if more than one patient had responded to the study drug during the initial stage. The safety analysis included all patients who had received a single dose of the study drug. The main efficacy analysis was based on the FAS population, defined as a group of patients who had received at least single dose of study drug and had at least one tumor response evaluation after the baseline assessment.

Data set [5] relates to advanced PDAC. The note with it: combined with gemcitabine; cited from earlier work.
The subject of data set [6] is germline BRCA-mutated metastatic pancreatic cancer. The note with it: cited from earlier work.
For data set [7], the system named is advanced PDAC. The note with it: with gemcitabine; cited from earlier work.
In data set [8] the test system is pancreatic cancer. The note with it: 1250 mg/m^2 twice daily for 2 weeks followed by a 1-week rest, first line; cited from earlier work.
Data set [9] deals with PDAC after gemcitabine-based therapy. The note with it: with bortezomib, seven patients enrolled; cited from earlier work.
The test system of data set [10] is metastatic pancreatic cancer. The conditions noted are these: first line; cited from earlier work.
The mark [11] stands for this setting: Grade 3, treatment-related, phase II (n = 24).
Setting [12] is: Grade 4, treatment-related, phase II (n = 24).
The mark [13] stands for this setting: Total grade 3 and 4, treatment-related, phase II (n = 24).
[14] abbreviates: FAS analysis (n=16), with gemcitabine + erlotinib.

Turning to `Nc1ccn([C@@H]2O[C@H](CO)[C@@H](O)C2(F)F)c(=O)n1` [gemcitabine, reference compound], the “patients with dose reduced due to occurrence of AEs” value in data set [1] (phase II) amounted to 12.5%.
As to `CN(C)CCCNC(=O)/C(=C/CCCCC(=O)NO)COc1cccc2ccccc12.O=P(O)(O)O` [ivaltinostat, (E)-N1-(3-(dimethylamino)propyl)-N8-hydroxy-2-((naphthalen-1-yloxy)methyl)oct-2-enediamide phosphate], the “dose-limiting toxicity (DLT)” value in data set [2] (human, in vivo, 28 day) is listed as “One DLT, a febrile neutropenia of grade 3”. Also, in data set [2] (iv days 1, 8, 15 with gemcitabine 1000 mg/m2 iv and erlotinib 100 mg/day orally, 28-day cycle), the “maximum tolerable dose (MTD) / recommended dose for phase II” value is listed as 250 mg/m^2. Moreover, in [1] (setting [11]), the “Anemia, % of patients” value is “(16.7) %”; the “Anemia, number of patients” value is 4; the “Anorexia, % of patients” value was “(8.3) %”; the “Anorexia, number of patients” value turned out to be 2. In data set [1] (setting [11]), the “Fatigue, % of patients” value was “(8.3) %”; the “Fatigue, number of patients” value is recorded as 2; the “Febrile neutropenia, % of patients” value is listed as “(8.3) %”; the “Febrile neutropenia, number of patients” value was determined as 2. In data set [1] (setting [11]), the “Neutropenia, % of patients” value was “(12.5) %”; the “Pneumonia, number of patients” value came out at 0; the “Thrombocytopenia, % of patients” value was “(16.7) %”; the “Thrombocytopenia, number of patients” value was 4. Besides, the “Neutropenia, number of patients” value in data set [1] (Grade 3, treatment-related, phase II (n = 24), with gemcitabine + erlotinib) was 3. In data set [1] (setting [12]), the “Anemia, number of patients” value is listed as 0; the “Anorexia, number of patients” value stood at 0; the “Fatigue, number of patients” value was found to be 0; the “Febrile neutropenia, number of patients” value is 0. In data set [1] (setting [12]), the “Neutropenia, % of patients” value is on record as “(20.8) %”; the “Neutropenia, number of patients” value is recorded as 5; the “Pneumonia, % of patients” value is on record as “(4.2) %”; the “Pneumonia, number of patients” value was found to be 1. In data set [1] (setting [12]), the “Thrombocytopenia, % of patients” value was “(12.5) %” and the “Thrombocytopenia, number of patients” value was found to be 3. In data set [1] (setting [13]), the “Anorexia, % of patients” value is recorded as “(8.3) %”; the “Anorexia, number of patients” value is recorded as 2; the “Fatigue, % of patients” value is “(8.3) %”; the “Fatigue, number of patients” value stood at 2. For the same compound, in [1] (setting [13]), the “Febrile neutropenia, % of patients” value was “(8.3) %”; the “Febrile neutropenia, number of patients” value is 2; the “Pneumonia, % of patients” value is recorded as “(4.2) %”; the “Pneumonia, number of patients” value amounted to 1. In data set [1] (phase II, 24 subjects), the ADR decreased appetite amounted to 11 events, the “ADR decreased platelet count” value worked out at 15 events, the ADR nausea turned out to be 10 events and the ADR rash is 11 events. Moreover, in data set [1] (phase II, 24 subjects), the ADR vomiting is on record as 10 events, the “ADRs with grade 3 or 4 severity” value is listed as 26, the AEs reported worked out at 218 and the “grade 5 (death) events” value is listed as “no grade 5 (death) events”. Moreover, the “adverse drug reactions (ADRs)” value in data set [1] (phase II, all 24 subjects) amounted to 114. Also, the “patients with dose reduced due to occurrence of AEs” value in data set [1] (phase II) was found to be 12.5%. In data set [3] (187.5 mg/m2), the AUC(0-t) (in general, exposure summed from dosing to a finite time, without extrapolation to infinity) is 28300 ng·h/mL; the Cmax (as a rule, the maximum level reached in the sampled fluid or tissue) was found to be 9550 ng/mL; the half-life – broadly, the time in which the quantity being followed falls by half – is 7.3 h. In data set [3] (250 mg/m2), this compound had an AUC(0-t) of 35100 ng·h/mL, a Cmax of 8060 ng/mL and a half-life of 5.7 h. For the same compound, in data set [3] (312.5 mg/m2), the AUC(0-t) was 65400 ng·h/mL, the Cmax worked out at 12800 ng/mL and the half-life is 6.6 h. Besides, in data set [4] (FAS analysis (n=16)), the “PRs, % of patients” value is given as 25%; the “PRs, number of patients” value came to 4; the “SDs, % of patients” value amounted to 68.8%; the “SDs, number of patients” value was 11. Further, in [4] (FAS analysis (n=16)), the “median OS” value was determined as 10.8 months and the “median PFS” value is reported as 5.8 months. In [4] (setting [14]), the DCR is given as 93.8% and the ORR is reported as 25.0%. Moreover, in data set [4] (PP analysis (n=10)), the DCR amounted to 100%; the ORR worked out at 30%; the “PRs, % of patients” value stood at 30%; the “PRs, number of patients” value is listed as 3. In addition, in data set [4] (PP analysis (n=10)), the “SDs, % of patients” value amounted to 70%; the “SDs, number of patients” value amounted to 7; the “median OS” value is 11.7 months; the “median PFS” value was 5.9 months. The “median OS” value in data set [4] (all patients (n=23), ivaltinostat 250 mg/m^2 + gemcitabine 1000 mg/m^2 + erlotinib 100 mg/day) is recorded as 8.6 months. Further, the “median PFS” value in data set [4] (all patients (n=23), ivaltinostat 250 mg/m^2 + gemcitabine + erlotinib) came out at 5.3 months.
For the compound `CC(=O)Nc1ccc(C(=O)Nc2ccccc2N)cc1` [tacedinaline], the “clinical benefit vs gemcitabine alone” value in [5] is “no advantage over gemcitabine alone”.
For `O=C(c1cc(Cc2n[nH]c(=O)c3ccccc23)ccc1F)N1CCN(C(=O)C2CC2)CC1` [olaparib], in data set [6] (maintenance after ≥16 weeks of platinum-based therapy, gBRCA mutations, placebo 3.8), the “median PFS” value is recorded as 7.4 months. In addition, the “HR for PFS vs. placebo” value in [6] (p=0.004) was 0.53.
In the case of `Nc1ccccc1NC(=O)c1ccc(CNc2nccc(-c3cccnc3)n2)cc1` [mocetinostat], the “clinical activity and toxicity” value in [7] was “showed only limited clinical activity”.
Regarding `CCCCCOC(=O)Nc1nc(=O)n([C@@H]2O[C@H](C)[C@@H](O)[C@H]2O)cc1F` [Capecitabine, capecitabine], the efficacy and tolerability result in [8] is “effective and tolerable”.
On to `Cc1[nH]c2ccccc2c1CCNCc1ccc(/C=C/C(=O)NO)cc1` [panovinostat], for which the study outcome in [9] was “suspended due to lack of response and toxicity”.
On to FOLFIRINOX, for which, in data set [10], the “median progression-free survival (PFS)” value is listed as 6.4 months and the “overall survival (OS)” value is listed as 11.1 months.
On to `C#Cc1cccc(Nc2ncnc3cc(OCCOC)c(OCCOC)cc23)c1` [erlotinib, reference compound], for which the “patients with dose reduced” value in data set [1] (phase II, 24 patients) is recorded as “no patient received a reduced dose”.
